pIC50: −log10 of the molar value.
How the values were obtained:
[1] = biological target: NAMPT (human, recombinant, C-terminally His-tagged) (Homo sapiens, UniProt P43490); experiment: Time-Resolved Fluorescence Resonance Energy Transfer (TR-FRET) Binding Assay of NAMPT; conditions: absence of substrates; 6.8 nM NAMPT, 200 nM probe, equilibrated 3 hours
How it was run: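 Displacement of 200 nM Oregon Green-labelled nicotinamide-competitive probe from 6.8 nM His-tagged NAMPT, detected with 1 nM Tb-anti-His; HEPES pH 7.5, 2% DMSO, 3 h room temperature. Em520/Em495 ratios normalized and fit four-parameter logistic for IC50.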

NAMPT = NAMPT (Homo sapiens, UniProt P43490); experiment: Time-Resolved Fluorescence Resonance Energy Transfer (TR-FRET) Binding Assay of NAMPT with PRPP; conditions: 200 μM PRPP and 2.5 mM ATP; 2 nM NAMPT, 2 nM probe, equilibrated 16 hours
How it was run: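 Binding was measured by TR-FRET with 2 nM NAMPT, 2 nM probe and 1 nM Tb-anti-His antibody in the presence of 200 μM PRPP and 2.5 mM ATP, with 2% DMSO. Equilibration lasted 16 h before reading, allowing possible enzymatic modification of compounds.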

Sequence of NAMPT (human, recombinant, C-terminally His-tagged) (P43490 whole entry): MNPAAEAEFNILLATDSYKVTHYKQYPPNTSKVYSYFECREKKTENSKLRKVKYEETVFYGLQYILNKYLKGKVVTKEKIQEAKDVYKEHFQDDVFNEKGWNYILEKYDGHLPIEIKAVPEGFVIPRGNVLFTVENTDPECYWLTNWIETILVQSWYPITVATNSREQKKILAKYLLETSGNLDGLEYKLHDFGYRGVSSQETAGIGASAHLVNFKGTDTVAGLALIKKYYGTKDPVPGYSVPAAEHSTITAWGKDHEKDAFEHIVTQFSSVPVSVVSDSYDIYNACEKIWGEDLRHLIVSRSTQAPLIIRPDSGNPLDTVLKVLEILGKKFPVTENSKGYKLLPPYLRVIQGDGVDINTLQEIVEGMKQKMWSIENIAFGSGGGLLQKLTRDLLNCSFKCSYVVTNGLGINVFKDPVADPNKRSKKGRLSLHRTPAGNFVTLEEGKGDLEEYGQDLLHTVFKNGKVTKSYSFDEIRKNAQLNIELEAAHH
Sequence of NAMPT (P43490 whole entry): as above

Structure (SMILES) | pIC50 [1] | pIC50 (NAMPT)
CC(C)CCN(Cc1cccc(Cl)c1)c1ncc(C(=O)NCCCn2ccnc2)s1 [Example 58, 2-[(3-chlorobenzyl)(3-methylbutyl)amino]-N-[3-(1H-imidazol-1-yl)propyl]-1,3-thiazole-5-carboxamide] | 5.76 | 6.09
CC(C)OCCNC(=O)N(CCc1ccc(Cl)cn1)c1ncc(C(=O)NCCCn2ccnc2)s1 [Example 210, 2-([2-(5-chloropyridin-2-yl)ethyl]{[2-(propan-2-yloxy)ethyl]carbamoyl}amino)-N-[3-(1H-imidazol-1-yl)propyl]-1,3-thiazole-5-carboxamide] | 5.56 | 9.72
COCCC(=O)N(c1ncc(C(=O)NCCCn2ccnc2)s1)C(C)c1ccccn1 (stereo not drawn) [Example 110, N-[3-(1H-imidazol-1-yl)propyl]-2-{(3-methoxypropanoyl)[1-(pyridin-2-yl)ethyl]amino}-1,3-thiazole-5-carboxamide] | < 5.00 | 7.63
COCCC(=O)N(CCOC)c1ncc(C(=O)NCCCn2ccnc2)s1 [Example 175, N-[3-(1H-imidazol-1-yl)propyl]-2-[(2-methoxyethyl)(3-methoxypropanoyl)amino]-1,3-thiazole-5-carboxamide] | 5.94 | 9.22
CNC(=O)CN(Cc1ccc(F)cc1)c1ncc(C(=O)NCCCn2ccnc2)s1 [Example 18, 2-{(4-fluorobenzyl)[2-(methylamino)-2-oxoethyl]amino}-N-[3-(1H-imidazol-1-yl)propyl]-1,3-thiazole-5-carboxamide] | 5.32 | 6.09
CC(C)CCN(Cc1ccccc1Cl)c1ncc(C(=O)NCCCn2ccnc2)s1 [Example 57, 2-[(2-chlorobenzyl)(3-methylbutyl)amino]-N-[3-(1H-imidazol-1-yl)propyl]-1,3-thiazole-5-carboxamide] | < 5.00 | 5.94
COCCC(=O)N(Cc1cnc(C)cn1)c1ncc(C(=O)NCCCn2ccnc2)s1 [Example 115, N-[3-(1H-imidazol-1-yl)propyl]-2-{(3-methoxypropanoyl)[(5-methylpyrazin-2-yl)methyl]amino}-1,3-thiazole-5-carboxamide] | 5.85 | 8.44
N#Cc1ccc(CN(C(=O)NCCC(N)=O)c2ncc(C(=O)NCCCn3ccnc3)s2)cc1 [Example 140, 2-{[(3-amino-3-oxopropyl)carbamoyl](4-cyanobenzyl)amino}-N-[3-(1H-imidazol-1-yl)propyl]-1,3-thiazole-5-carboxamide] | < 5.00 | 7.65
N#Cc1ccc(CN(C(=O)NCCOCCO)c2ncc(C(=O)NCCCn3ccnc3)s2)cc1 [Example 125, 2-[(4-cyanobenzyl){[2-(2-hydroxyethoxy)ethyl]carbamoyl}amino]-N-[3-(1H-imidazol-1-yl)propyl]-1,3-thiazole-5-carboxamide] | < 5.00 | 9.15
O=C(NCCCn1ccnc1)c1cnc(N(CCCN2CCOCC2)Cc2ccc(F)cc2)s1 [Example 7, 2-{(4-fluorobenzyl)[3-(morpholin-4-yl)propyl]amino}-N-[3-(1H-imidazol-1-yl)propyl]-1,3-thiazole-5-carboxamide] | 5.79 | 6.31
Cc1cn(CCCNC(=O)c2cnc(N(Cc3ccc(F)cc3)C(=O)CC(C)C)s2)cn1 [Example 54, 2-[(4-fluorobenzyl)(3-methylbutanoyl)amino]-N-[3-(4-methyl-1H-imidazol-1-yl)propyl]-1,3-thiazole-5-carboxamide] | 5.68 | 8.25
O=C(NCCCn1ccnc1)c1cnc(N(Cc2ccc(F)cc2)C(=O)CN2CCCC(O)C2)s1 (stereo not drawn) [Example 41, 2-{(4-fluorobenzyl)[(3-hydroxypiperidin-1-yl)acetyl]amino}-N-[3-(1H-imidazol-1-yl)propyl]-1,3-thiazole-5-carboxamide] | 5.07 | 7.53
N#Cc1ccc(CN(C(=O)NCCCCO)c2ncc(C(=O)NCCCn3ccnc3)s2)cc1 [Example 132, 2-{(4-cyanobenzyl)[(4-hydroxybutyl)carbamoyl]amino}-N-[3-(1H-imidazol-1-yl)propyl]-1,3-thiazole-5-carboxamide] | 5.31 | 8.99
O=C(NCCCn1ccnc1)c1cnc(N2CCN(c3ccc(F)cc3)C2=O)s1 [Example 204, 2-[3-(4-fluorophenyl)-2-oxoimidazolidin-1-yl]-N-[3-(1H-imidazol-1-yl)propyl]-1,3-thiazole-5-carboxamide] | 5.43 | 8.84
O=C(NCCCn1ccnc1)c1cnc(N(Cc2ccc(Cl)cn2)C(=O)C2CCOCC2)s1 [Example 205, 2-{[(5-chloropyridin-2-yl)methyl](tetrahydro-2H-pyran-4-ylcarbonyl)amino}-N-[3-(1H-imidazol-1-yl)propyl]-1,3-thiazole-5-carboxamide] | 6.13 | 9.75
CN(C)C1CCN(CC(=O)N(Cc2ccc(F)cc2)c2ncc(C(=O)NCCCn3ccnc3)s2)C1 (stereo not drawn) [Example 39, 2-[{[3-(dimethylamino)pyrrolidin-1-yl]acetyl}(4-fluorobenzyl)amino]-N-[3-(1H-imidazol-1-yl)propyl]-1,3-thiazole-5-carboxamide] | 5.62 | 9.03
COCCC(=O)N(CC1CCCCO1)c1ncc(C(=O)NCCCn2ccnc2)s1 (stereo not drawn) [Example 177, N-[3-(1H-imidazol-1-yl)propyl]-2-[(3-methoxypropanoyl)(tetrahydro-2H-pyran-2-ylmethyl)amino]-1,3-thiazole-5-carboxamide] | 5.34 | 9.19
O=C(NCCCn1ccnc1)c1cnc(N2CCN(CCO)C2=O)s1 [Example 203, 2-[3-(2-hydroxyethyl)-2-oxoimidazolidin-1-yl]-N-[3-(1H-imidazol-1-yl)propyl]-1,3-thiazole-5-carboxamide] | < 5.00 | 7.87
COCCNC(=O)N(CCc1ccc(Cl)cn1)c1ncc(C(=O)NCCCn2ccnc2)s1 [Example 209, 2-{[2-(5-chloropyridin-2-yl)ethyl][(2-methoxyethyl)carbamoyl]amino}-N-[3-(1H-imidazol-1-yl)propyl]-1,3-thiazole-5-carboxamide] | 5.17 | 9.61
COCCC(=O)N(CC1CCCO1)c1ncc(C(=O)NCCCn2ccnc2)s1 (stereo not drawn) [Example 178, N-[3-(1H-imidazol-1-yl)propyl]-2-[(3-methoxypropanoyl)(tetrahydrofuran-2-ylmethyl)amino]-1,3-thiazole-5-carboxamide] | 5.16 | 9.09
CC1CN(C(=O)N(Cc2ccc(F)cc2)c2ncc(C(=O)NCCCn3ccnc3)s2)CC(C)O1 (stereo not drawn) [Example 70, N-(4-fluorobenzyl)-N-(5-{[3-(1H-imidazol-1-yl)propyl]carbamoyl}-1,3-thiazol-2-yl)-2,6-dimethylmorpholine-4-carboxamide] | < 5.00 | 8.29
N#Cc1ccc(CN(C(=O)CC2CCOCC2)c2ncc(C(=O)NCCCn3ccnc3)s2)cc1 [Example 51, 2-[(4-cyanobenzyl)(tetrahydro-2H-pyran-4-ylacetyl)amino]-N-[3-(1H-imidazol-1-yl)propyl]-1,3-thiazole-5-carboxamide] | < 5.00 | 8.31
N#Cc1ccc(CN(C(=O)NCCCC(=O)O)c2ncc(C(=O)NCCCn3ccnc3)s2)cc1 [Example 172, 4-{[(4-cyanobenzyl)(5-{[3-(1H-imidazol-1-yl)propyl]carbamoyl}-1,3-thiazol-2-yl)carbamoyl]amino}butanoic acid] | < 5.00 | 6.82
CC(C)CCN(C(=O)COc1ccccc1)c1ncc(C(=O)NCCCn2ccnc2)s1 [Example 136, N-[3-(1H-imidazol-1-yl)propyl]-2-[(3-methylbutyl)(phenoxyacetyl)amino]-1,3-thiazole-5-carboxamide] | 7.61 | 9.76
CC1(C)CN(C(=O)N(Cc2ccc(F)cc2)c2ncc(C(=O)NCCCn3ccnc3)s2)CCO1 [Example 72, N-(4-fluorobenzyl)-N-(5-{[3-(1H-imidazol-1-yl)propyl]carbamoyl}-1,3-thiazol-2-yl)-2,2-dimethylmorpholine-4-carboxamide] | < 5.00 | 8.40
CC(C)CCN(C(=O)CC1CCCO1)c1ncc(C(=O)NCCCn2ccnc2)s1 (stereo not drawn) [Example 173, N-[3-(1H-imidazol-1-yl)propyl]-2-[(3-methylbutyl)(tetrahydrofuran-2-ylacetyl)amino]-1,3-thiazole-5-carboxamide] | 6.15 | 8.63
COCCC(=O)N(CCCN1CCCC1=O)c1ncc(C(=O)NCCCn2ccnc2)s1 [Example 197, N-[3-(1H-imidazol-1-yl)propyl]-2-{(3-methoxypropanoyl)[3-(2-oxopyrrolidin-1-yl)propyl]amino}-1,3-thiazole-5-carboxamide] | 5.04 | 9.60
CCOC(=O)CC(NC(=O)N(Cc1ccc(C#N)cc1)c1ncc(C(=O)NCCCn2ccnc2)s1)C(C)C (stereo not drawn) [Example 162, ethyl 3-{[(4-cyanobenzyl)(5-{[3-(1H-imidazol-1-yl)propyl]carbamoyl}-1,3-thiazol-2-yl)carbamoyl]amino}-4-methylpentanoate] | 5.48 | 6.73
CC(C)OCCCNC(=O)N(Cc1ccc(C#N)cc1)c1ncc(C(=O)NCCCn2ccnc2)s1 [Example 126, 2-[(4-cyanobenzyl){[3-(propan-2-yloxy)propyl]carbamoyl}amino]-N-[3-(1H-imidazol-1-yl)propyl]-1,3-thiazole-5-carboxamide] | 5.38 | 8.89
O=C(NCCCn1ccnc1)c1cnc(N(Cc2ccc(F)cc2)C(=O)CN2CCN(CCO)CC2)s1 [Example 42, 2-[(4-fluorobenzyl){[4-(2-hydroxyethyl)piperazin-1-yl]acetyl}amino]-N-[3-(1H-imidazol-1-yl)propyl]-1,3-thiazole-5-carboxamide] | < 5.00 | 7.61

Source: patent US9334264B2, “NAMPT inhibitors” (AbbVie Inc., priority 2012, dated 2016)
